Test results reported in patent publication US7662825B2, “N-pyrazinyl-phenylsulphonamides and their use in the treatment of chemokine mediated diseases” (AstraZeneca AB, priority 2002, dated 2010).

| melting point | SMILES |
| --- | --- |
| 95 to 105 °C | COc1nc(Cn2cncn2)cnc1NS(=O)(=O)c1cccc(Cl)c1Cl [Example 195, 2,3-Dichloro-N-[3-methoxy-5-(1H-1,2,4-triazol-1-ylmethyl)-2-pyrazinyl]benzenesulphonamide] |
| 142 to 143 °C | COc1nc(OCc2cc(C)on2)cnc1NS(=O)(=O)c1cccc(Cl)c1Cl [Example 174] |
| 145 to 147 °C | COc1nc(CO)c(Cl)nc1NS(=O)(=O)c1cccc(Cl)c1Cl [Example 127, 2,3-Dichloro-N-[6-chloro-5-(hydroxymethyl)-3-methoxypyrazin-2-yl]benzenesulphonamide] |
| 200 to 204 °C | O=S(=O)(Nc1ncc(Cl)nc1OCc1cccnc1)c1cccc(Cl)c1Cl [Example 36, N-[5-Chloro-3-(3-pyridinylmethoxy)-2-pyrazinyl]-2,3-dichlorobenzenesulphonamide] |
| 209 to 210 °C | CN(C)Cc1ccc(COc2ncc(Cl)nc2NS(=O)(=O)c2cccc(Cl)c2Cl)o1 [Example 180, 2,3-Dichloro-N-[6-chloro-3-(5-dimethylaminomethyl-2-furanylmethoxy)-2-pyrazinyl]benzenesulphonamide] |
| 150 to 152 °C | COc1nc(NCCNC(C)=O)c(Cl)nc1NS(=O)(=O)c1cccc(Cl)c1Cl [Example 76, N-{2-[3-Chloro-5-(2,3-dichlorobenzenesulphonylamino)-6-methoxy-2-pyrazinylamino]ethyl}acetamide] |
| 114 to 115 °C | COc1nc(OCc2ccc(CN(C)C)o2)cnc1NS(=O)(=O)c1cccc(Cl)c1Cl [Example 175, 2,3-Dichloro-N-[5-(5-dimethylaminomethyl-2-furanylmethoxy)-3-methoxy-2-pyrazinyl]benzenesulphonamide] |
| 209 to 210 °C | CN(C)Cc1ccc(COc2nc(Cl)cnc2NS(=O)(=O)c2cccc(Cl)c2Cl)o1 [Example 182, 2,3-Dichloro-N-[5-chloro-3-(5-dimethylaninomethyl-2-furanylmethoxy)-2-pyrazinyl]benzenesulphonamide] |
| 159 to 159.5 °C | COc1nc(Cl)cnc1NS(=O)(=O)c1cccc(F)c1Cl [Example 130, 2-Chloro-N-(5-chloro-3-methoxy-2-pyrazinyl)-3-fluorobenzenesulphonamide] |
| 150 to 151 °C | COc1nc(N2CCOCC2)c(Cl)nc1NS(=O)(=O)c1cccc(Cl)c1Cl [Example 67, 2,3-Dichloro-N-[6-chloro-3-methoxy-5-(4-morpholinyl)-2-pyrazinyl]benzenesulphonamide] |
| 185 to 186 °C | CNc1nc(OC)c(NS(=O)(=O)c2cccc(Cl)c2Cl)nc1Cl [Example 79, 2,3-Dichloro-N-(6-chloro-3-methoxy-5-methylamino-2-pyrazinyl)benzenesulphonamide] |
| 155 to 156 °C | Cc1cnc(NS(=O)(=O)c2cccc(Cl)c2Cl)c(OCc2cc(C)on2)n1 [Example 21, 2,3-Dichloro-N-[5-methyl-3-(5-methyl-3-isoxazolylmethoxy)-2-pyrazinyl]benzenesulphonamide] |
| 189 to 190 °C | COc1ncc(Cl)nc1NS(=O)(=O)c1ccc(Cl)cc1Cl [Example 41, N-(6-Chloro-3-methoxy-2-pyrazinyl)-2,4-dichlorobenezenesulphonamide] |
| 206 to 207 °C | CN(C)Cc1ccc(COc2nc(Br)cnc2NS(=O)(=O)c2cccc(Cl)c2Cl)o1 [Example 176, N-[5-Bromo-3-(5-dimethylaminomethyl-2-furanylmethoxy)-2-pyrazinyl]-2,3-dichloro-benzenesulphonamide] |
| 162 to 163 °C | O=S(=O)(Nc1ncc(Cl)nc1OCc1cccc(CO)c1)c1cccc(Cl)c1Cl [Example 106, 2,3-Dichloro-N-[5-chloro-3-(3-hydroxymethylphenylmethoxy)-2-pyrazinyl]benzenesulphonamide] |
| 172 to 173 °C | COc1nc(Cl)c(Cl)nc1NS(=O)(=O)c1cccc(Cl)c1Cl [Example 59, 2,3-Dichloro-N-(5,6-dichloro-3-methoxy-2-pyrazinyl)benzenesulphonamide] |
| 192 to 194 °C | COc1nccnc1NS(=O)(=O)c1ccc(F)c(Cl)c1Cl [Example 207, 2,3-Dichloro-4-fluoro-N-(3-methoxy-2-pyrazinyl)benzenesulphonamide] |
| 161 to 162 °C | CC(Oc1nc(Cl)cnc1NS(=O)(=O)c1cccc(Cl)c1Cl)C1CC1 (centres unmarked) [Example 208] |
| 50 to 60 °C | COc1ncc(C)nc1NS(=O)(=O)c1cccc(Cl)c1Cl [Example 194, 2,3-Dichloro-N-(3-methoxy-6-methyl-2-pyrazinyl)benzenesulphonamide] |
| 186 to 187 °C | COc1nc(Cl)c(Cl)nc1NS(=O)(=O)c1ccc(Cl)cc1 [Example 62, 4-Chloro-N-(5,6-dichloro-3-methoxy-2-pyrazinyl)benzenesulphonamide] |
| 172 to 173 °C | COc1ncc(Cl)nc1NS(=O)(=O)c1ccccc1Cl [Example 38, 2-Chloro-N-(6-chloro-3-methoxy-2-pyrazinyl)benezenesulphonamide] |

| melting point | SMILES |
| --- | --- |
| 207 to 209 °C | O=S(=O)(Nc1ncc(Br)nc1OCc1cnccn1)c1cccc(Cl)c1Cl [Example 31, N-[5-Bromo-3-(2-pyrazinylmethoxy)-2-pyrazinyl]-2,3-dichlorobenzenesulphonamide] |
| 201 to 203 °C | O=S(=O)(Nc1nc(Cl)cnc1OCc1ccccn1)c1cccc(Cl)c1Cl [Example 100, 2,3-Dichloro-N-[6-chloro-3-(2-pyridinylmethoxy)-2-pyrazinyl]benzenesulphonamide] |
| 163 to 165 °C | COc1nc(OC)c(NS(=O)(=O)c2cccc(Cl)c2Cl)nc1Cl [Example 66, 2,3-Dichloro-N-(6-chloro-3,5-dimethoxy-2-pyrazinyl)benzenesulphonamide] |
| 176 to 177 °C | COc1ncc(Cl)nc1NS(=O)(=O)c1ccc(Cl)c(Cl)c1 [Example 42, N-(6-Chloro-3-methoxy-2-pyrazinyl)-3,4-dichlorobenezenesulphonamide] |
| 171 to 172 °C | COc1nc(Cl)c(Cl)nc1NS(=O)(=O)c1cccc(Cl)c1 [Example 61, 3-Chloro-N-(5,6-dichloro-3-methoxy-2-pyrazinyl)benzenesulphonamide] |
| 210 °C (dec.) | O=S(=O)(Nc1ncc(-c2ccncc2)nc1OCc1cccnc1)c1cccc(Cl)c1Cl [Example 136, 2,3-Dichloro-N-[5-(4-pyridinyl)-3-(3-pyridinylmethoxy)-2-pyrazinyl]benzenesulphonaminde] |
| 175 to 176 °C | O=S(=O)(Nc1ncc(Cl)nc1OCc1ccc(CNC2CC2)o1)c1cccc(Cl)c1Cl [Example 210, 2,3-Dichloro-N-[5-chloro-3-(5-cyclopropylaminomethyl-2-furanylmethoxy)-2-pyrazinyl]-benzenesulphonamide] |
| 146 to 148 °C | COc1nc(Br)c(C)nc1NS(=O)(=O)c1cccc(Cl)c1Cl [Example 118, 2,3-Dichloro-N-[5-bromo-3-methoxy-6-methyl-2-pyrazinyl)benzenesulphonamide] |
| 127 to 129 °C | Cc1cnc(NS(=O)(=O)c2cccc(Cl)c2Cl)c(OCc2ccco2)n1 [Example 20, 2,3-Dichloro-N-[3-(2-furanylmethoxy)-5-methyl-2-pyrazinyl]benzenesulphonamide] |
| 119 to 120 °C | COc1nc(SCc2ccc(F)cc2)cnc1NS(=O)(=O)c1cccc(Cl)c1Cl [Example 170, 2,3-Dichloro-N-[5-(4-fluorobenzylsulphanyl)-3-methoxy-2-pyrazinyl]benzenesulphonamide] |
| 193 to 194 °C | COCCOc1nc(OC)c(NS(=O)(=O)c2cccc(Cl)c2Cl)nc1Cl [Example 70, 2,3-Dichloro-N-[6-chloro-3-methoxy-5-(2-methoxyethoxy)-2-pyrazinyl]benzenesulphonamide] |
| 135 to 136 °C | COc1nc(C)cnc1NS(=O)(=O)c1ccc(Cl)cc1Cl [Example 47, 2,4-Dichloro-N-(3-methoxy-5-methyl-2-pyrazinyl)benezenesulphonamide] |
| 208 to 209 °C | O=S(=O)(Nc1ncc(Br)nc1OCc1cncnc1)c1cccc(Cl)c1Cl [Example 35, N-[5-Bromo-3-(5-pyrimidinylmethoxy)-2-pyrazinyl]-2,3-dichlorobenzenesulphonamide] |
| 175 to 176 °C | COC(=O)c1cccc(COc2nc(Cl)cnc2NS(=O)(=O)c2cccc(Cl)c2Cl)c1 [Example 104, 3-[6-Chloro-3-(2,3-dichlorobenzenesulphonylamino)-2-pyrazinyloxymethyl]benzoic acid methyl ester] |
| 201 to 202 °C | NCc1ccc(COc2nc(Cl)cnc2NS(=O)(=O)c2cccc(Cl)c2Cl)o1 [Example 196, N-(3-(5-Aminomethyl-2-furanylmethoxy)-5-chloro-2-pyrazinyl)-2,3-dichloro-benzenesulphonamide] |
| 209 to 210 °C | COC(=O)c1cnc(NS(=O)(=O)c2cccc(Cl)c2Cl)c(OCc2cccnc2)n1 [Example 134, 5-(2,3-Dichlorobenzenesulphonylamino)-6-(3-pyridinylmethoxy)pyrazine-2-carboxylic acid, methyl ester] |
| 203 to 204 °C | O=S(=O)(Nc1nc(Cl)cnc1OCc1cccnc1)c1cccc(Cl)c1Cl [Example 99, 2,3-Dichloro-N-[6-chloro-3-(3-pyridinylmethoxy)-2-pyrazinyl]benzenesulphonamide] |
| 137 to 138 °C | Cc1cnc(NS(=O)(=O)c2cccc(Cl)c2Cl)c(OCc2ncccc2C)n1 [Example 26, 2,3-Dichloro-N-[5-methyl-3-(3-methyl-2-pyridinylmethoxy)-2-pyrazinyl]benzenesulphonamide] |
| 138 to 139 °C | C#CCOc1nc(Cl)cnc1NS(=O)(=O)c1cccc(Cl)c1Cl [Example 188, 2,3-Dichloro-N-[5-chloro-3-(2-propynyloxy)-2-pyrazinyl]benzenesulphonamide] |
| 158 to 159 °C | Cc1cccc(COc2nc(Cl)cnc2NS(=O)(=O)c2cccc(Cl)c2Cl)n1 [Example 93, 2,3-Dichloro-N-[S-chloro-3-(6-methyl-2-pyridinylmethoxy)-2-pyrazinyl]benzenesulphonamide] |
